From ChEMBL document CHEMBL1201861, “Genomics of Drug Sensitity in Cancer screening data, Wellcome Trust Sanger Institute”

What was measured:
Test in all cases: cells
[1] = system: SBC-1; format: functional, cell-based; settings: Homo sapiens;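 further: cell viability assay measuring growth inhibition of the SBC-1 cell line, IC50 being the concentration that halves growth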
Description: SANGER: Inhibition of human SBC-1 cell growth in a cell viability assay.

[2] = system: KMOE-2; format: functional, cell-based; settings: Homo sapiens;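 further: growth inhibition of human KMOE-2 cells, read out with a cell viability assay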
Description: SANGER: Inhibition of human KMOE-2 cell growth in a cell viability assay.

[3] = system: KALS-1; format: functional, cell-based, Homo sapiens; settings: Homo sapiens, KALS-1;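 further: growth inhibition of KALS-1 cells, determined with a cell viability assay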
[4] = system: TE-9; format: functional, cell-based, Homo sapiens; settings: Homo sapiens, TE-9;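 further: cell growth inhibition, measured with a cell viability readout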
Description: SANGER: Inhibition of human TE-9 cell growth in a cell viability assay.

[5] = system: UACC-257; format: functional, cell-based, Homo sapiens; settings: Homo sapiens, UACC-257
Description: SANGER: Inhibition of human UACC-257 cell growth in a cell viability assay.

[6] = system: SK-LMS-1; format: functional, cell-based, Homo sapiens; settings: Homo sapiens, SK-LMS-1;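 further: growth inhibition of human SK-LMS-1 cells, read out with a cell viability assay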
Description: SANGER: Inhibition of human SK-LMS-1 cell growth in a cell viability assay.

[7] = system: MOLT-16; format: functional, cell-based; settings: Homo sapiens;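 further: growth inhibition of human MOLT-16 cells, read out with a cell viability assay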
Description: SANGER: Inhibition of human MOLT-16 cell growth in a cell viability assay.

[8] = system: NCI-H69; format: functional, cell-based; settings: Homo sapiens;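 further: growth inhibition of the cell line, read out with a cell viability assay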
Description: SANGER: Inhibition of human NCI-H69 cell growth in a cell viability assay.

[9] = system: KS-1; format: functional, cell-based, Homo sapiens; settings: Homo sapiens, KS-1;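 further: growth inhibition of KS-1 cells, read out with a cell viability assay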
Description: SANGER: Inhibition of human KS-1 cell growth in a cell viability assay.

[10] = system: MZ7-mel; format: functional, cell-based, Homo sapiens; settings: Homo sapiens, MZ7-mel;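 further: growth inhibition of human MZ7-mel cells, measured by a cell viability assay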
[11] = system: L-363; format: functional, cell-based; settings: Homo sapiens
Description: SANGER: Inhibition of human L-363 cell growth in a cell viability assay.

[12] = system: GI-ME-N; format: functional, cell-based, Homo sapiens; settings: Homo sapiens, GI-ME-N;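 further: growth inhibition of human GI-ME-N cells, read out with a cell viability assay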
Description: SANGER: Inhibition of human GI-ME-N cell growth in a cell viability assay.

[13] = system: D-502MG; format: functional, cell-based, Homo sapiens; settings: Homo sapiens, D-502MG
Description: SANGER: Inhibition of human D-502MG cell growth in a cell viability assay.

[14] = system: JVM-3; format: functional, cell-based; settings: Homo sapiens;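 further: growth inhibition of human JVM-3 cells, read out with a cell viability assay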
Description: SANGER: Inhibition of human JVM-3 cell growth in a cell viability assay.

[15] = system: NCI-H1770; format: functional, cell-based; settings: Homo sapiens;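 further: growth inhibition of NCI-H1770 cells determined with a viability readout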
Description: SANGER: Inhibition of human NCI-H1770 cell growth in a cell viability assay.

[16] = system: MHH-NB-11; format: functional, cell-based, Homo sapiens; settings: Homo sapiens, MHH-NB-11;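 further: growth inhibition of human MHH-NB-11 cells, read out by a cell viability assay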
Description: SANGER: Inhibition of human MHH-NB-11 cell growth in a cell viability assay.

[17] = system: VA-ES-BJ; format: functional, cell-based, Homo sapiens; settings: Homo sapiens, VA-ES-BJ;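 further: growth inhibition of the VA-ES-BJ cell line, read out by a cell viability assay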
Description: SANGER: Inhibition of human VA-ES-BJ cell growth in a cell viability assay.

[18] = system: TGBC1TKB; format: functional, cell-based, Homo sapiens; settings: Homo sapiens, TGBC1TKB;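 further: growth inhibition of TGBC1TKB cells, read out by a cell viability assay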
Description: SANGER: Inhibition of human TGBC1TKB cell growth in a cell viability assay.

[19] = system: D-542MG; format: functional, cell-based, Homo sapiens; settings: Homo sapiens, D-542MG
Description: SANGER: Inhibition of human D-542MG cell growth in a cell viability assay.

[20] = system: Ca9-22; format: functional, cell-based, Homo sapiens; settings: Homo sapiens, Ca9-22;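 further: growth inhibition of Ca9-22 cells, read out with a cell viability assay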
Description: SANGER: Inhibition of human Ca9-22 cell growth in a cell viability assay.

[21] = system: 639-V; format: functional, cell-based, Homo sapiens; settings: Homo sapiens, 639-V;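 further: growth inhibition of 639-V cells, read out with a cell viability assay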
Description: SANGER: Inhibition of human 639-V cell growth in a cell viability assay.

[22] = system: NY; format: functional, cell-based, Homo sapiens; settings: Homo sapiens, NY
Description: SANGER: Inhibition of human NY cell growth in a cell viability assay.

[23] = system: MEL-HO; format: functional, cell-based, Homo sapiens; settings: Homo sapiens, MEL-HO
Description: SANGER: Inhibition of human MEL-HO cell growth in a cell viability assay.

[24] = system: SK-MEL3; format: functional, cell-based, Homo sapiens, SK-MEL-3; settings: Homo sapiens, SK-MEL3;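 further: growth inhibition of human SK-MEL-3 cells, read out with a cell viability assay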
Description: SANGER: Inhibition of human SK-MEL-3 cell growth in a cell viability assay.

[25] = system: CAKI-1; format: functional, cell-based, Homo sapiens; settings: Homo sapiens, CAKI-1;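 further: growth inhibition of CAKI-1 cells, measured by a cell viability assay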
Description: SANGER: Inhibition of human CAKI-1 cell growth in a cell viability assay.

[26] = system: RVH-421; format: functional, cell-based, Homo sapiens; settings: Homo sapiens, RVH-421
Description: SANGER: Inhibition of human RVH-421 cell growth in a cell viability assay.

[27] = system: PANC-03-27; format: functional, cell-based, Homo sapiens; settings: Homo sapiens, PANC-03-27
Description: SANGER: Inhibition of human PANC-03-27 cell growth in a cell viability assay.

[28] = system: NCI-H1437; format: functional, cell-based, Homo sapiens; settings: Homo sapiens, NCI-H1437;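 further: growth inhibition of human NCI-H1437 cells, read out by a cell viability assay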
Description: SANGER: Inhibition of human NCI-H1437 cell growth in a cell viability assay.

[29] = system: SK-HEP1; format: functional, cell-based, Homo sapiens, SK-HEP-1; settings: Homo sapiens, SK-HEP1;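 further: cell viability readout used to quantify reduction in proliferation of human SK-HEP-1 cells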
Description: SANGER: Inhibition of human SK-HEP-1 cell growth in a cell viability assay.

[30] = system: T84; format: functional, cell-based, Homo sapiens; settings: Homo sapiens, T84;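 further: growth inhibition measured with a cell viability readout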
Description: SANGER: Inhibition of human T84 cell growth in a cell viability assay.

[31] = system: CWR22R; format: functional, cell-based, Homo sapiens; settings: Homo sapiens, 22Rv1;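 further: growth inhibition of 22Rv1 cells, read out with a cell viability assay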
Description: SANGER: Inhibition of human 22RV1 cell growth in a cell viability assay.

[32] = system: HT-1080; format: functional, cell-based, Homo sapiens; settings: Homo sapiens, HT-1080
Description: SANGER: Inhibition of human HT-1080 cell growth in a cell viability assay.

[33] = system: SNU-449; format: functional, cell-based, Homo sapiens; settings: Homo sapiens, SNU-449
Description: SANGER: Inhibition of human SNU-449 cell growth in a cell viability assay.

[34] = system: NCI-H1623; format: functional, cell-based, Homo sapiens; settings: Homo sapiens, NCI-H1623;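 further: cell viability assay used as the read-out for growth inhibition of NCI-H1623 cells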
Description: SANGER: Inhibition of human NCI-H1623 cell growth in a cell viability assay.

[35] = system: CAPAN-1; format: functional, cell-based, Homo sapiens; settings: Homo sapiens, CAPAN-1;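 further: growth suppression of CAPAN-1 cells, read out by a cell viability assay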
Description: SANGER: Inhibition of human CAPAN-1 cell growth in a cell viability assay.

[36] = system: OE33; format: functional, cell-based, Homo sapiens; settings: Homo sapiens, OE33;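 further: growth inhibition of human OE33 cells, measured by a cell viability assay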
Description: SANGER: Inhibition of human OE33 cell growth in a cell viability assay.

[37] = system: NCI-H358; format: functional, cell-based, Homo sapiens; settings: Homo sapiens, NCI-H358;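 further: growth inhibition of NCI-H358 human cells, read out with a cell viability assay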
Description: SANGER: Inhibition of human NCI-H358 cell growth in a cell viability assay.

[38] = system: MC-IXC; format: functional, cell-based, Homo sapiens; settings: Homo sapiens, MC-IXC;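 further: growth inhibition of MC-IXC cells, read out with a cell viability assay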
Description: SANGER: Inhibition of human MC-IXC cell growth in a cell viability assay.

[39] = system: KU-19-19; format: functional, cell-based, Homo sapiens; settings: Homo sapiens, KU-19-19
Description: SANGER: Inhibition of human KU-19-19 cell growth in a cell viability assay.

[40] = system: MIA PaCa-2; format: functional, cell-based, Homo sapiens; settings: Homo sapiens, MIA PaCa-2;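 further: growth inhibition of MIA PaCa-2 cells, read out with a cell viability assay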
Description: SANGER: Inhibition of human MIA-PaCa-2 cell growth in a cell viability assay.

[41] = system: CAL-85-1; format: functional, cell-based; settings: Homo sapiens;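 further: growth inhibition of human CAL-85-1 cells, read out with a cell viability assay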
Description: SANGER: Inhibition of human CAL-85-1 cell growth in a cell viability assay.

[42] = system: SW1990; format: functional, cell-based, Homo sapiens; settings: Homo sapiens, SW1990;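 further: cell growth inhibition determined with a viability assay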
Description: SANGER: Inhibition of human SW1990 cell growth in a cell viability assay.

[43] = system: HCC1806; format: functional, cell-based, Homo sapiens; settings: Homo sapiens, HCC1806;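 further: growth inhibition of the cancer cell line, determined with a cell viability assay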
Description: SANGER: Inhibition of human HCC1806 cell growth in a cell viability assay.

[44] = system: HCC1954; format: functional, cell-based, Homo sapiens; settings: Homo sapiens, HCC1954;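 further: growth inhibition of human HCC1954 cells, read out with a cell viability assay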
Description: SANGER: Inhibition of human HCC1954 cell growth in a cell viability assay.

[45] = system: NCI-N87; format: functional, cell-based, Homo sapiens; settings: Homo sapiens, NCI-N87;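 further: growth inhibition of human NCI-N87 cells, read out with a cell viability assay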
Description: SANGER: Inhibition of human NCI-N87 cell growth in a cell viability assay.

[46] = system: KYSE-270; format: functional, cell-based, Homo sapiens; settings: Homo sapiens, KYSE-270;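 further: cell growth inhibition measured with a viability assay in the human KYSE-270 line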
Description: SANGER: Inhibition of human KYSE-270 cell growth in a cell viability assay.

[47] = system: NCI-H292; format: functional, cell-based, Homo sapiens; settings: Homo sapiens, NCI-H292;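 further: growth inhibition of NCI-H292 cells, read out with a cell viability assay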
Description: SANGER: Inhibition of human NCI-H292 cell growth in a cell viability assay.

[48] = system: SN12C; format: functional, cell-based, Homo sapiens; settings: Homo sapiens, SN12C;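 further: growth inhibition of human SN12C cells, measured by a cell viability assay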
Description: SANGER: Inhibition of human SN12C cell growth in a cell viability assay.

[49] = system: NCI-H1793; format: functional, cell-based, Homo sapiens; settings: Homo sapiens, NCI-H1793;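 further: cell growth inhibition, read out by a cell viability assay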
Description: SANGER: Inhibition of human NCI-H1793 cell growth in a cell viability assay.

What does the source list for `Cc1cc(Nc2cc(N3CCN(C)CC3)nc(Sc3ccc(NC(=O)C4CC4)cc3)n2)n[nH]1` [TOZASERTIB]?
IC50 [1]: 1.13 µM; IC50 [2]: > 2 µM; IC50 [3]: > 2000 nM; IC50 [4]: > 2 µM; IC50 [5]: > 2 µM; IC50 [6]: 1220 nM; IC50 [7]: 1350 nM; IC50 [8]: > 2 µM; IC50 [9]: 238 nM; IC50 [10]: > 2 µM; IC50 [11]: > 2 µM; IC50 [12]: > 0.002 mM; IC50 [13]: > 2 µM; IC50 [14]: > 2 µM; IC50 [15]: > 2 µM; IC50 [16]: > 2 µM; IC50 [17]: 201 nM; IC50 [18]: > 2 µM

Which results are given for `CN1CCN(CCOc2cc(OC3CCOCC3)c3c(Nc4c(Cl)ccc5c4OCO5)ncnc3c2)CC1` [SARACATINIB]?
IC50 [1]: > 2 µM; IC50 [2]: > 2 µM; IC50 [3]: 1990 nM; IC50 [4]: > 2 µM; IC50 [5]: > 2 µM; IC50 [6]: > 2000 nM; IC50 [7]: > 2000 nM; IC50 [8]: > 2 µM; IC50 [9]: 1200 nM; IC50 [10]: > 2 µM; IC50 [11]: > 2 µM; IC50 [12]: > 0.002 mM; IC50 [13]: > 2 µM; IC50 [14]: > 2 µM; IC50 [15]: > 2 µM; IC50 [16]: > 2 µM; IC50 [17]: > 2000 nM; IC50 [18]: > 2 µM

With `COC(=O)CNC(=O)C(=O)OC` as the molecule, how does the IC50 [19] read?
The IC50 was 560 µM.

And the IC50 [1]?
Its IC50 is 1410 µM.

What about the IC50 [20] of the same molecule?
The IC50 was 924 µM.

And the IC50 [21]?
The IC50 was 1.52 mM.

What about the IC50 [2] of the same molecule?
Its IC50 is 305 µM.

And the IC50 [3]?
The IC50 was 624000 nM.

What about the IC50 [4] of the same molecule?
The IC50 was 951 µM.

What about the IC50 [22] of the same molecule?
The IC50 was 725 µM.

And the IC50 [23]?
The IC50 was 3.61 mM.

What about the IC50 [24] of the same molecule?
The IC50 was 279 µM.

What about the IC50 [25] of the same molecule?
The IC50 was 289 µM.

What about the IC50 [26] of the same molecule?
The IC50 was 1.31 mM.

And the IC50 [27]?
The IC50 was 672 µM.

And the IC50 [28]?
Its IC50 is 90.8 µM.

And the IC50 [29]?
Its IC50 is 84.2 µM.

And the IC50 [5]?
Its IC50 is 1090 µM.

And the IC50 [30]?
The IC50 was greater than 4 mM.

What about the IC50 [31] of the same molecule?
Its IC50 is 304 µM.

What about the IC50 [6] of the same molecule?
The IC50 was 120000 nM.

What about the IC50 [32] of the same molecule?
Its IC50 is 421 µM.

What about the IC50 [7] of the same molecule?
The IC50 was 127000 nM.

And the IC50 [8]?
Its IC50 is greater than 4000 µM.

And the IC50 [9]?
Its IC50 is 11300 nM.

What about the IC50 [33] of the same molecule?
Its IC50 is 92.5 µM.

What about the IC50 [10] of the same molecule?
Its IC50 is 171 µM.

What about the IC50 [34] of the same molecule?
Its IC50 is 117 µM.

And the IC50 [35]?
Its IC50 is 101 µM.

And the IC50 [11]?
The IC50 was 150 µM.

What about the IC50 [12] of the same molecule?
The IC50 was 2.12 mM.

And the IC50 [36]?
Its IC50 is 421 µM.

And the IC50 [13]?
Its IC50 is greater than 4000 µM.

What about the IC50 [14] of the same molecule?
The IC50 was greater than 4000 µM.

What about the IC50 [37] of the same molecule?
The IC50 was 103 µM.

What about the IC50 [38] of the same molecule?
The IC50 was 96.7 µM.

What about the IC50 [39] of the same molecule?
Its IC50 is 1.01 mM.

And the IC50 [15]?
Its IC50 is greater than 4000 µM.

What about the IC50 [16] of the same molecule?
Its IC50 is greater than 4000 µM.

And the IC50 [40]?
Its IC50 is 139 µM.

And the IC50 [41]?
The IC50 was 108 µM.

What about the IC50 [42] of the same molecule?
The IC50 was 441 µM.

What about the IC50 [43] of the same molecule?
Its IC50 is 1.84 mM.

What about the IC50 [44] of the same molecule?
The IC50 was 900 µM.

What about the IC50 [45] of the same molecule?
The IC50 was 3.95 mM.

What about the IC50 [46] of the same molecule?
Its IC50 is 275 µM.

And the IC50 [47]?
The IC50 was 103 µM.

What about the IC50 [48] of the same molecule?
The IC50 was 257 µM.

And the IC50 [17]?
Its IC50 is 907000 nM.

What about the IC50 [49] of the same molecule?
Its IC50 is 2.95 mM.

And the IC50 [18]?
Its IC50 is 1790 µM.
